Results reported in patent US9580391B2, “Saturated acyl guanidine for inhibition of F1F0-ATPase” (Lycera Corporation, priority 2012, dated 2017).

Key:
F1F0-ATPase = target: T1, F1F0-ATPase (Bos taurus, UniProt P13621); experiment: Inhibition of F1F0-ATPase activity in synthesizing ATP; type: biochemical; conditions: inhibition of ATP synthesis; read-out: ATP Syn IC50
T1 construct: from tissue
Method: (§1) Compounds described in above Examples were tested for activity against F1F0-ATPase by measuring the ability of the compounds to inhibit ATP synthesis. In addition, the compounds were assessed for cytotoxicity in Ramos cells. Inhibition of F1F0-ATPase activity in synthesizing ATP and cytotoxicity in Ramos cells were measured according to the procedures described in K. M. Johnson et al. Chemistry & Biology 2005, 12, 485-496.

Ramos cells = experiment: Cytotoxicity in Ramos cells; type: cell-based; conditions: Homo sapiens, read-out: Ramos Cell EC50
Method: as §1

Molecule `CC(C)(C)CC(=O)/N=C(\Nc1cc(-c2ccc(F)cc2)[nH]n1)NC(C)(C)C` [Compound 1, (Z)—N-((tert-Butylamino)((5-(4-fluorophenyl)-1H-pyrazol-3-yl)amino)methylene)-3,3-dimethylbutanamide] has an IC50 (F1F0-ATPase) of under 5 µM and an EC50 (Ramos cells) of 5 to 16 µM.

`O=C(/N=C(/Nc1cccc(Cl)c1)Nc1ccc2cn[nH]c2c1)C1CCCCC1` [Compound 2, (E)-N-(((1H-Indazol-6-yl)amino)((3-chlorophenyl)amino)methylene)cyclohexanecarboxamide] was tested, and the IC50 (F1F0-ATPase) was 5 to 16 µM and the EC50 (Ramos cells) was 5 to 16 µM.

`O=C(Cc1ccc(Cl)cc1)/N=C(/Nc1cc(F)cc(Cl)c1)Nc1ccc2cn[nH]c2c1` [Compound 3, N-(((1H-Indazol-6-yl)amino)((3-chloro-5-fluorophenyl)amino)methylene)-2-(4-chlorophenyl)acetamide] was tested, and the IC50 (F1F0-ATPase) was under 5 µM and the EC50 (Ramos cells) was 5 to 16 µM.
